Results reported in patent US20070161560A1, “Use of vanilloid 4 receptor and antagonists or agonists thereof for treating diseases associated with pain” (SmithKline Beecham plc, priority 2000, published 2007).

How the values were obtained:
Format in all cases: cell-based
[1] = tested on: VR4 endogenously expressed by chondrocytes; experiment: FLIPR cytoplasmic calcium (Fluo-3), bovine articular chondrocytes; conditions: channel blocker against the 4α-PDD response
Description: (§1) The VR4 cDNA was inserted into the expression vector pcDNA3.1 V5-His (Invitrogen). Wildtype HEK293 cells, or HEK293 cells transfected with the human VR4:pcDNA3.1 V5-His construct, or mock transfected cells, or bovine chondrocytes, were seeded into 96-well microtitre plates at 25,000 cells/well and cultured overnight. The cells were then incubated with 4 microM Fluo-3 for 2 hrs at room temperature in the dark. Dye loaded cells were washed 4× with Tyrodes buffer: (NaCl, 145 mM; KCl, 2.5 mM; Hepes, 10 mM; Glucose, 10 mM; MgC12, 1.2 mM; CaCl2, 1.5 mM), which also contained 0.2% BSA but not probenecid. Agonists and antagonists were also prepared in Tyrodes buffer. Cells were preincubated for 30 mins with antagonist or buffer. Agonist addition and measurement of cytoplasmic calcium concentration was performed in the FLIPR (Smart et al., (2000) Br. J. Pharmacol. 129, 227-230).
The response was dependent upon extracellular calcium ions and was blocked by the channel blocker ruthenium red.

human VR4 = biological target: T1, human VR4 (Homo sapiens, UniProt Q9HBA0); experiment: FLIPR cytoplasmic calcium (Fluo-3), HEK293 cells transfected with human VR4; conditions: for effect on intracellular calcium in HEK293-VR4 cells: result in words; for pEC50 hVR4: increase of intracellular calcium, mean ± s.e. mean, n = 3-5, IA = inactive; for effect on intracellular calcium in HEK293-VR4 cells / pEC50 hVR4: HEK293-VR4 cells
T1 construct: V5-His (vector-encoded); expressed in transfected cells; host or cells: HEK293
T1 sequence (Q9HBA0 whole entry): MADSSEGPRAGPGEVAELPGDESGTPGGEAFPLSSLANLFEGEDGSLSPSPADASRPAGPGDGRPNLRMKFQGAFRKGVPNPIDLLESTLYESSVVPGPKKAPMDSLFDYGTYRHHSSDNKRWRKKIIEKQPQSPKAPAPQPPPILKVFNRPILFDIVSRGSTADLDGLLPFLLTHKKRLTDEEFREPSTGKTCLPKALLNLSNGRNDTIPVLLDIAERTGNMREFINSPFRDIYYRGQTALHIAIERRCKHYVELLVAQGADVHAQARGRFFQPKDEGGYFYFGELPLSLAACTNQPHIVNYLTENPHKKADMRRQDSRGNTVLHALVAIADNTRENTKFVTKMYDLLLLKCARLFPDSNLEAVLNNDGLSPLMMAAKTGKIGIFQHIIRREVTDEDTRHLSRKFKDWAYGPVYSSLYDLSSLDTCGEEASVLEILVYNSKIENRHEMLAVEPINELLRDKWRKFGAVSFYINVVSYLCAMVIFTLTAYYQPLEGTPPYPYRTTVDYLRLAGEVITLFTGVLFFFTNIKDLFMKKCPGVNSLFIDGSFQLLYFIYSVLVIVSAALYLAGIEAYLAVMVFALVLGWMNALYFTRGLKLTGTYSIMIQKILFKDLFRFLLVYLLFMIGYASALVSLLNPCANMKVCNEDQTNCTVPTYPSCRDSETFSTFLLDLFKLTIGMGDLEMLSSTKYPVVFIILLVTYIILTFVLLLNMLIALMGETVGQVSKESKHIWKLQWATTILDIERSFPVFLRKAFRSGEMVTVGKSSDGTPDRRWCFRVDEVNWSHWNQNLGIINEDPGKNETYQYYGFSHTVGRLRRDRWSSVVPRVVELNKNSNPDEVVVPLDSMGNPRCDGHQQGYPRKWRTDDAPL
Description: as §1

wild type HEK293 cells = experiment: FLIPR cytoplasmic calcium (Fluo-3), wild type HEK293 cells; conditions: result in words
Description: as §1

human VR1 = human VR1 (Homo sapiens, UniProt Q8NER1); conditions: for pEC50 hVR1: increase of intracellular calcium, human VR1, mean ± s.e. mean, n = 3-5, IA = inactive; for activity at VR1: result in words
human VR1, sequence (Q8NER1 whole entry): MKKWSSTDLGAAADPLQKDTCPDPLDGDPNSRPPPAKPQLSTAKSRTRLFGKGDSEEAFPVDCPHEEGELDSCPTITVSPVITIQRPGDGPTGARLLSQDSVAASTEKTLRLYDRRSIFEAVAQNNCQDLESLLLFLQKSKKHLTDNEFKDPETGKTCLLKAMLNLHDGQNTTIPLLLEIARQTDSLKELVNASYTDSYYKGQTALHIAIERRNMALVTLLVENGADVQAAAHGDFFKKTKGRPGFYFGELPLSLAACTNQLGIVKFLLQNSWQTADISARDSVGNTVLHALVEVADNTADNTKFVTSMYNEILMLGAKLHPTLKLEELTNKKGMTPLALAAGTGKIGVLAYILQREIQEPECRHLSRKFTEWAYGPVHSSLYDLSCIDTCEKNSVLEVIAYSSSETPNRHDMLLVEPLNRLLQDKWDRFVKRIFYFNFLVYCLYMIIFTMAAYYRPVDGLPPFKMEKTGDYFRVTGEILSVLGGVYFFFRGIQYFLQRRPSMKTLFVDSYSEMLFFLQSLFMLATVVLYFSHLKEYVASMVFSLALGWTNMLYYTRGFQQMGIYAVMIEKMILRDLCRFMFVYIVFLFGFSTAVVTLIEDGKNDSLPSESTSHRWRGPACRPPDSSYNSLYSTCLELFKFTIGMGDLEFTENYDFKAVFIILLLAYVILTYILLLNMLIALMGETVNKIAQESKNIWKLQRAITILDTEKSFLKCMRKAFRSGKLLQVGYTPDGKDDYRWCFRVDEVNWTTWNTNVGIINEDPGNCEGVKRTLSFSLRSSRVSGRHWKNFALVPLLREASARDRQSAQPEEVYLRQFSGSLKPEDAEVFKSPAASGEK

[2] = tested on: HEK293 cells transfected with empty vector; experiment: FLIPR cytoplasmic calcium (Fluo-3), HEK293 cells transfected with empty vector; conditions: result in words
Description: as §1

Compound | block of the response to 4α-PDD in bovine articular chondrocytes [1] | effect on intracellular calcium in HEK293-VR4 cells (human VR4) | pEC50 hVR4 (human VR4) | effect on intracellular calcium in wild type HEK293 cells (wild type HEK293 cells) | Emax at VR1 (human VR1; compared to capsaicin and RTX) | pEC50 hVR1 (human VR1) | activity at VR1 (human VR1) | effect on intracellular calcium in cells transfected with empty vector [2] | selectivity VR4 over VR1 (human VR4; conclusion from pEC50 at hVR4 and hVR1)
N.N.N.N.N.N.N.N.N.N.N.N.N.N.[Cl-].[Cl-].[Cl-].[Cl-].[Cl-].[Cl-].[O-2].[O-2].[Ru+3].[Ru+3].[Ru+4] [ruthenium red] | blocked |  |  |  |  |  |  |  | 
CCCCCCCCCCCCCC(=O)O[C@@H]1[C@@H](C)[C@@]2(O)[C@@H](C=C(CO)C[C@]3(O)C(=O)C(C)=C[C@@H]23)[C@@H]2C(C)(C)[C@]12OC(C)=O [PMA, phorbol 12-myristate 13-acetate] |  | increased intracellular calcium | 6.64 ± 0.06 | without effect | 0.46 | 7.86 ± 0.06 | partial agonist | without effect | 
C=C(C)[C@]12C[C@@H](C)[C@@]34O[C@](Cc5ccccc5)(O[C@@H]1[C@@H]3C=C(COC(=O)Cc1ccc(O)c(OC)c1)C[C@]1(O)C(=O)C(C)=C[C@@H]41)O2 [RTX] |  |  |  |  |  | 8.93 ± 0.20 |  |  | 
CCCCCCCCCC(=O)O[C@@H]1[C@@H](C)[C@@]2(O)[C@@H](C=C(CO)C[C@@]3(O)C(=O)C(C)=C[C@@H]23)[C@@H]2C(C)(C)[C@]12OC(=O)CCCCCCCCC [4αPDD, 4α-phorbol-12,13-didecanoate] |  | increased intracellular calcium | 5.73 ± 0.06 | without effect |  |  | inactive | without effect | VR4 selective agonist
